Test results as given in US20260240847A1, “COMPOUNDS WITH ANTI-TUMOR ACTIVITY AGAINST CANCER CELLS BEARING TYROSINE KINASE INHIBITOR RESISTANT EGFR MUTATIONS” (BOARD OF REGENTS, THE UNIVERSITY OF TEXAS SYSTEM, priority 2019, published 2026).

Tests used:
Experiment in all cases: Ba/F3 cell viability, Cell Titer Glo
EGFR L861R = EGFR L861R (Homo sapiens, UniProt P00533, L861R); settings: read-out: IC50 Values; Ba/F3 cells expressing EGFR L861R, 72 hours
Procedure: (§1) Cell viability was determined by the Cell Titer Glo assay.
(§2) Briefly, stable Ba/F3 cell lines were generated by retroviral transduction of Ba/F3 cell line for 12 hours. […] Three days after transduction, 2 μg/ml puromycin (Invitrogen) was added to the RPMI media. Cell lines were then grown in the absence of IL-3 for two weeks and cell viability was assessed every three days using the Cell Titer Glo assay (Progema).
(§3) Briefly, 2000-3000 cells per well were plated in 384-well plates (Greiner Bio-One) in technical triplicate. Cells were treated with seven different concentrations of tyrosine kinase inhibitors or vehicle alone at a final volume of 40 μL per well. After 3 days, 11 μL of Cell Titer Glo was added to each well. Plates were shaken for 15 minutes, and bioluminescence was determined using a FLUOstar OPTIMA multi-mode micro-plate reader (BMG LABTECH). Bioluminescence values were normalized to DMSO treated cells, and normalized values were plotted in GraphPad Prism using non-linear regression fit to normalized data with a variable slope.

EGFR K757R = EGFR K757R (Homo sapiens, UniProt P00533, K757R); settings: read-out: IC50 Values; Ba/F3 cells expressing EGFR K757R, 72 hours
Procedure: as §1, §2, §3

EGFR L858R G724S = EGFR L858R G724S (Homo sapiens, UniProt P00533, G724S/L858R); settings: read-out: IC50 Values; Ba/F3 cells expressing EGFR L858R G724S, 72 hours
Procedure: (§4) The transforming capability of the mutations was then evaluated by sustained cell viability following IL-3 deprivation. Activating EGFR mutant Ba/F3 cells were then screened against EGFR TKIs. Cell viability was determined by the Cell Titer Glo assay.
(§5) Ba/F3 cells expressing acquired atypical mutations spanning exons 18-21 were treated with inhibitors for 72 hours. […] Briefly, stable Ba/F3 cell lines were generated by retroviral transduction of Ba/F3 cell line for 12 hours. […] Three days after transduction, 2 μg/ml puromycin (Invitrogen) was added to the RPMI media. Cell lines were then grown in the absence of IL-3 for two weeks and cell viability was assessed every three days using the Cell Titer Glo assay (Progema).
as §3

EGFR L718V = EGFR L718V (Homo sapiens, UniProt P00533, L718V); settings: read-out: IC50 Values; Ba/F3 cells expressing EGFR L718V, 72 hours
Procedure: as §1, §2, §3

EGFR Ex19delT854l = EGFR Ex19delT854l (Homo sapiens, UniProt P00533, DEL746-750/T854I); settings: read-out: IC50 Values; Ba/F3 cells expressing EGFR Ex19delT854l, 72 hours
Procedure: as §4, §5, §3

EGFR S768I = EGFR S768I (Homo sapiens, UniProt P00533, S768I); settings: read-out: IC50 Values; Ba/F3 cells expressing EGFR S768I, 72 hours
Procedure: as §1, §2, §3

EGFR Ex19del L718V = EGFR Ex19del L718V (Homo sapiens, UniProt P00533, DEL746-750/L718V); settings: read-out: IC50 Values; Ba/F3 cells expressing EGFR Ex19del L718V, 72 hours
Procedure: as §4, §5, §3

EGFR N771dupN G724S = EGFR N771dupN G724S (Homo sapiens, UniProt P00533, DUP771-771/G724S); settings: read-out: IC50 Values; Ba/F3 cells expressing EGFR N771dupN G724S, 72 hours
Procedure: as §1, §2, §3

EGFR L858R L718Q = EGFR L858R L718Q (Homo sapiens, UniProt P00533, L718Q/L858R); settings: read-out: IC50 Values; Ba/F3 cells expressing EGFR L858R L718Q, 72 hours
Procedure: as §4, §5, §3

EGFR L861Q = EGFR L861Q (Homo sapiens, UniProt P00533, L861Q); settings: read-out: IC50 Values; Ba/F3 cells expressing EGFR L861Q, 72 hours
Procedure: as §1, §2, §3

EGFR G724S T790M = EGFR G724S T790M (Homo sapiens, UniProt P00533, G724S/T790M); settings: read-out: IC50 Values; Ba/F3 cells expressing EGFR G724S T790M, 72 hours
Procedure: as §1, §2, §3

EGFR S768I V774M = EGFR S768I V774M (Homo sapiens, UniProt P00533, S768I/V774M); settings: read-out: IC50 Values; Ba/F3 cells expressing EGFR S768I V774M, 72 hours
Procedure: as §1, §2, §3

EGFR L858R T790M L718V = EGFR L858R T790M L718V (Homo sapiens, UniProt P00533, L718V/L858R/T790M); settings: read-out: IC50 Values; Ba/F3 cells expressing EGFR L858R T790M L718V, 72 hours
Procedure: as §1, §2, §3

EGFR H773insNPH = EGFR H773insNPH (Homo sapiens, UniProt P00533, INS773NPH); settings: read-out: IC50 Values; Ba/F3 cells expressing EGFR H773insNPH, 72 hours
Procedure: as §1, §2, §3

EGFR L858R/T790M/L718Q = EGFR L858R/T790M/L718Q (Homo sapiens, UniProt P00533, L718Q/L858R/T790M); settings: read-out: IC50 Values; Ba/F3 cells expressing EGFR L858R/T790M/L718Q, 72 hours
Procedure: as §1, §2, §3

EGFR Ex19del G796S = EGFR Ex19del G796S (Homo sapiens, UniProt P00533, DEL746-750/G796S); settings: read-out: IC50 Values; Ba/F3 cells expressing EGFR Ex19del G796S, 72 hours
Procedure: as §4, §5, §3

EGFR L747S = EGFR L747S (Homo sapiens, UniProt P00533, L747S); settings: read-out: IC50 Values; Ba/F3 cells expressing EGFR L747S, 72 hours
Procedure: as §1, §2, §3

EGFR S784F = EGFR S784F (Homo sapiens, UniProt P00533, S784F); settings: read-out: IC50 Values; Ba/F3 cells expressing EGFR S784F, 72 hours
Procedure: as §1, §2, §3

EGFR Ex19del/T790M/G724S = EGFR Ex19del/T790M/G724S (Homo sapiens, UniProt P00533, DEL746-750/G724S/T790M); settings: read-out: IC50 Values; Ba/F3 cells expressing EGFR Ex19del/T790M/G724S, 72 hours
Procedure: as §1, §3

EGFR G724S = EGFR G724S (Homo sapiens, UniProt P00533, G724S); settings: read-out: IC50 Values; Ba/F3 cells expressing EGFR G724S, 72 hours
Procedure: as §1, §2, §3

C=CC(=O)N1CC[C@@H](Oc2nc(Nc3ccc(N4CCC(N5CCN(C)CC5)CC4)cc3)c(C(N)=O)nc2CC)C1 [Naquotinib]
IC50 (EGFR L861R): 12.2 nM | IC50 (EGFR K757R): 122 nM | IC50 (EGFR L858R G724S): 108 nM | IC50 (EGFR L718V): 78.4 nM | IC50 (EGFR Ex19delT854l): 112 nM | IC50 (EGFR S768I): 503 nM | IC50 (EGFR Ex19del L718V): 13.9 nM | IC50 (EGFR N771dupN G724S): 375 nM | IC50 (EGFR L858R L718Q): 747 nM | IC50 (EGFR L861Q): 77.4 nM | IC50 (EGFR G724S T790M): 18.8 nM | IC50 (EGFR S768I V774M): 66.2 nM | IC50 (EGFR L858R T790M L718V): 4.03 nM | IC50 (EGFR H773insNPH): 145 nM | IC50 (EGFR L858R/T790M/L718Q): 91.8 nM | IC50 (EGFR Ex19del G796S): 53.2 nM | IC50 (EGFR L747S): 120 nM | IC50 (EGFR S784F): 70.2 nM | IC50 (EGFR Ex19del/T790M/G724S): 3.84 nM | IC50 (EGFR G724S): 58.1 nM
